# Measurements: publication PMC8546428, “Convergent olfactory trace amine-associated receptors detect biogenic polyamines with distinct motifs via a conserved binding site” (The Journal of Biological Chemistry, 2021)
# Where a chain is given by its changes, count along the chain named.
# Legend:
# mTAAR9 Y6.51W = target: T1, mTAAR9 Y6.51W (Mus musculus, UniProt Q5QD04, Y274W); experiment: CRE-luciferase reporter assay, mTAAR9 mutant in Hana3A; format: cell-based; details: read-out: EC50 (mean ± S.D., n = 3)
# T1 construct: expressed in transfected cells; host or cells: Hana3A (HEK293-derived)
# T1 sequence (Q5QD04 1-348 Y274W): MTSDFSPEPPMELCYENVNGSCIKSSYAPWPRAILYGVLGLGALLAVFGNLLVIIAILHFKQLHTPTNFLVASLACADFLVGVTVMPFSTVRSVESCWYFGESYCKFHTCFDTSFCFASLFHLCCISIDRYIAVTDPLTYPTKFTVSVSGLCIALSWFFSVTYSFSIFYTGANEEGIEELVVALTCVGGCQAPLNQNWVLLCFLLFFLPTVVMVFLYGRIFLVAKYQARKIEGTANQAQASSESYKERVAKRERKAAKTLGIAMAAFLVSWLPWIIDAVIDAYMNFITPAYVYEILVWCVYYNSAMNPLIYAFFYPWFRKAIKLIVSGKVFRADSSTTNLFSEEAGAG
# mTAAR9 W7.40Y = target: T2, mTAAR9 W7.40Y (Mus musculus, UniProt Q5QD04, W298Y); experiment: as above; format: cell-based; details: read-out: EC50 (mean ± S.D., n = 3)
# T2 construct: expressed in transfected cells; host or cells: Hana3A (HEK293-derived)
# T2 sequence (Q5QD04 whole entry W298Y): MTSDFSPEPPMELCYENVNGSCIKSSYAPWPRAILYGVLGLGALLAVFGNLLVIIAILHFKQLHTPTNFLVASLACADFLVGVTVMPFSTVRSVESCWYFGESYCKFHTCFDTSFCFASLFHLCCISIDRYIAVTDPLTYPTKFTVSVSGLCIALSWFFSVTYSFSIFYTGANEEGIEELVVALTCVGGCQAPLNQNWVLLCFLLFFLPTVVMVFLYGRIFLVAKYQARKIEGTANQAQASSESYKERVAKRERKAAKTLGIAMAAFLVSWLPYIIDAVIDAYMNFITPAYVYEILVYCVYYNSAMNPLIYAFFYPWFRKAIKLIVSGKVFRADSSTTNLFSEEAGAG
# sTAAR365 T7.42A = target: T3, sTAAR365 T7.42A (Petromyzon marinus, UniProt A0A678XMK4, T298A)
# T3 sequence (A0A678XMK4 1-365 T298A): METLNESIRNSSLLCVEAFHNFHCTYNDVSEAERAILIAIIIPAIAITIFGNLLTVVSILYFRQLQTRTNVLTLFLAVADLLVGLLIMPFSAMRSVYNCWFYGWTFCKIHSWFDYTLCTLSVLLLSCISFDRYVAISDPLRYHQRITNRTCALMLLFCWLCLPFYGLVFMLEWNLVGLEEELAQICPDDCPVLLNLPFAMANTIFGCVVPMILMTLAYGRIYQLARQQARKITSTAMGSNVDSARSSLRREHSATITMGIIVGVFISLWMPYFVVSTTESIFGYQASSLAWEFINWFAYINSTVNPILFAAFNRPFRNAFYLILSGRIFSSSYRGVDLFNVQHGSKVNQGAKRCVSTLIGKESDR
# sTAAR365 Y6.51A = experiment: cAMP TR-FRET assay, sTAAR365 mutant in HEK293T; format: cell-based, sea lamprey; details: cAMP production
# Excerpt: All mutants were verified by DNA sequencing.
# Cat TAAR9 = details: cat TAAR9, ligand 1 mM, Fig. 1B
# Procedure: (§1) We examined the response of TAAR9s from rat, human, hamster, and rabbit to the stimulation of 1 mM amines using a well-established cAMP response element (CRE)-driven luciferase reporter assay based on Golf-mediated cAMP signal transduction ([5], [24]). In addition to the four mTAAR9 ligands, we included putrescine, which is also a polyamine and precursor of spermine/spermidine biosynthesis.
# (§2) Mammalian TAAR9 plasmids were transfected into Hana3A cells along with a cAMP-dependent luciferase reporter plasmid (CRE-Luc). Transfected cells were incubated with tested ligands, and luciferase activity was quantified with a […] substrate as a reporter for Golf-mediated TAAR activation. Luciferase activity was indicated by the luminescence value and normalized as a fold-increase over the response to the vehicle stimuli (mean ± S.D., n = 3). […] B, Hana3A cells expressing mouse, rat, human, cat, hamster, and rabbit TAAR9 were incubated with either vehicle or tested ligands (1 mM) and assayed for reporter activity. C, concentration-dependent luciferase activity in Hana3A cells expressing mouse, rat, and cat TAAR9 receptors stimulated with cadaverine, spermidine, and spermine.
# (§3) The firefly luciferase and renilla luciferase activity was measured with a BioTek microplate reader following manufacturer’s instructions.
# hamster TAAR9 = hamster TAAR9 (Mesocricetus auratus, UniProt A0A1U7R5X1); details: hamster TAAR9, ligand 1 mM, Fig. 1B
# Sequence of hamster TAAR9 (A0A1U7R5X1 1-348): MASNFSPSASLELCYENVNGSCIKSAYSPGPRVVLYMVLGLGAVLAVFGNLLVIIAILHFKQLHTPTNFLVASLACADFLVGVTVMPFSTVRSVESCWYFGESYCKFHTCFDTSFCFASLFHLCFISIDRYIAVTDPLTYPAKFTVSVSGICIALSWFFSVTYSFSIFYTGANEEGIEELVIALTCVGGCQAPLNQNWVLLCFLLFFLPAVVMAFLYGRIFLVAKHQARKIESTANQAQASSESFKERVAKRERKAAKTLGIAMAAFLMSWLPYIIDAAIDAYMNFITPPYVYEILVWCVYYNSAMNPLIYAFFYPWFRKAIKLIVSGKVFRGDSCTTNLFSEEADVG
# Procedure: as §1, §2, §3
# human TAAR9 = human TAAR9 (Homo sapiens, UniProt Q96RI9); details: human TAAR9, ligand 1 mM, Fig. 1B
# Sequence of human TAAR9 (Q96RI9 whole entry): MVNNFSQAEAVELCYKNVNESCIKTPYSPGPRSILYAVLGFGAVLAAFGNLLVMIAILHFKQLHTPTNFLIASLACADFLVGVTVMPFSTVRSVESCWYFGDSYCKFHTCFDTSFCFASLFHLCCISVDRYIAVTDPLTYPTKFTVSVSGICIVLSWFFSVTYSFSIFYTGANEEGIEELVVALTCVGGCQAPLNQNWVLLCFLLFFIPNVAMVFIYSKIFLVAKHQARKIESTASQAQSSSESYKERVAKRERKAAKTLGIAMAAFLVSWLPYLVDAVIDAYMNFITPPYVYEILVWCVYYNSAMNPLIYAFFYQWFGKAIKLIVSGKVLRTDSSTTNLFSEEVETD
# Procedure: as §1, §2, §3
# rabbit TAAR9 = rabbit TAAR9 (Oryctolagus cuniculus, UniProt G1SUU9); details: rabbit TAAR9, ligand 1 mM, Fig. 1B
# Sequence of rabbit TAAR9 (G1SUU9 1-348): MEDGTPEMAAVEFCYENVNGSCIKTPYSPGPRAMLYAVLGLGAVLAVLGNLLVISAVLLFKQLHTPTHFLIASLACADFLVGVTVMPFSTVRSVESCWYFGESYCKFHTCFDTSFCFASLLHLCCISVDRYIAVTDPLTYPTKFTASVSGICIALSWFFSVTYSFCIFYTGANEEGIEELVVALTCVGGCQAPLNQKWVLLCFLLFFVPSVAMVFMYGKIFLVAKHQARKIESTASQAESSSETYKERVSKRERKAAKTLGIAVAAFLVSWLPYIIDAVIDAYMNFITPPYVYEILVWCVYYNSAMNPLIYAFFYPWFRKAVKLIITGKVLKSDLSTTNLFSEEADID
# Procedure: as §1, §2, §3
# sTAAR365 Y6.51L = target: T4, sTAAR365 Y6.51L (Petromyzon marinus, UniProt A0A678XMK4, Y272L); details: HEK293T, cAMP production
# T4 sequence (A0A678XMK4 1-365 Y272L): T3 sequence (A0A678XMK4 1-365 T298A) with Y272L, A298T
Structure (SMILES),EC50 (mTAAR9 Y6.51W),EC50 (mTAAR9 W7.40Y),increase of EC50 vs wild-type sTAAR365 (sTAAR365 T7.42A),"EC50 (mean ± S.D., n = 3) (sTAAR365 Y6.51A)",reporter activity (activation of TAAR9) (Cat TAAR9),reporter activity (activation of TAAR9) (hamster TAAR9),reporter activity (activation of TAAR9) (human TAAR9),reporter activity (activation of TAAR9) (rabbit TAAR9),"EC50 (mean ± S.D., n = 3) (sTAAR365 Y6.51L)"
NCCCCCN [cadaverine],> 1000 µM,28 ± 8 µM,over three,–,–,–,–,–,–
NCCCCN [putrescine],–,–,–,loss,not activated,not activated,not activated,not activated,loss
